Experimental findings from ChEMBL document CHEMBL1201862, “PubChem BioAssay data set” (2004) are described below.

The structures appear in SMILES notation.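 Following 48 hours of exposure in 96-well plates, responses at five concentrations were used to interpolate endpoints linearly. Abbreviation: GI50, concentration required for 50% inhibition of growth.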 The source made the active and inactive calls. Rule as the data show it: active = GI50 up to about 1.1 µM and inactive = higher.

What is called GI50 is the concentration that inhibits growth by half.

Some test systems named below: NCI-H23; HOP-62; SN12C; T47D; RPMI-8226; HCT-15; UO-31; BT-549; M14; SK-MEL-2; PC-3; U-251; CCRF-CEM; MDA-MB-231; OVCAR-5; HL-60; NCI-H460; HCT-116; SK-MEL-28; HCC 2998.
Experiment in all cases: DTP human tumour cell line panel, 48 h

On to `COC(=O)/C=C(\S/C(=C(/c1ccccc1)n1cc(C(=O)OC)c(C(=O)OC)n1)c1ccccc1)C(=O)OC`, for which the GI50 is 18.1 µM (inactive) in the experiment on NCI-H23; 16 µM (inactive) with HOP-62; 16.5 µM (inactive) with SN12C; 3.27 µM (inactive) with T47D; 1.95 µM (inactive) with RPMI-8226; 11.6 µM with HCT-15. Besides, the GI50 was 2.24 µM (inactive) in the experiment on UO-31; 38.5 µM (inactive) in the experiment on BT-549; 12.9 µM (inactive) with M14; 14.9 µM (inactive) with SK-MEL-2; 16.4 µM (inactive) in the experiment with PC-3; 23.2 µM (inactive) in the experiment with U-251. The GI50 in the experiment with CCRF-CEM was 3.12 µM (inactive); in the experiment with MDA-MB-231, 22 µM (inactive); in the experiment with OVCAR-5, 18.7 µM (inactive); with HL-60, 3.26 µM (inactive); with NCI-H460 it was 30.8 µM (inactive); in the experiment with HCT-116, 12.1 µM (inactive). In addition, in the experiment with SK-MEL-28, the GI50 is 20.7 µM (inactive).

`O=[N+]([O-])c1ccc2nnnn2c1`: the GI50 was 22.6 µM (inactive) with NCI-H23; 31 µM (inactive) in the experiment with HOP-62; 19.8 µM (inactive) in the experiment with SN12C; > 100 µM (inactive) with T47D; 8.22 µM in the experiment with HCT-15; 7.89 µM (inactive) with UO-31. In addition, the GI50 with BT-549 was 23.3 µM (inactive); with M14, 13.8 µM (inactive); in the experiment with SK-MEL-2 it was 23.3 µM (inactive); in the experiment with PC-3, > 100 µM (inactive); with U-251 it was 23.2 µM (inactive); in the experiment with MDA-MB-231, 10.8 µM (inactive). Also, the GI50 in the experiment with OVCAR-5 was 41.4 µM (inactive); in the experiment with HL-60 it was 16 µM (inactive); in the experiment on NCI-H460, 31.6 µM (inactive); in the experiment on HCT-116 it was 4.18 µM (inactive); in the experiment with SK-MEL-28 it was 20.8 µM (inactive).

Consider `Brc1ccc(/N=N/c2ccc3ccccc3n2)cc1`, for which the GI50 is 27.8 µM (inactive) in the experiment with NCI-H23; 40.4 µM (inactive) in the experiment on SN12C; 22.2 µM (inactive) in the experiment on T47D; 18.1 µM (inactive) in the experiment on RPMI-8226; 35.3 µM in the experiment on HCT-15; 11.2 µM (inactive) in the experiment with UO-31. Also, the GI50 is 14.5 µM (inactive) in the experiment on BT-549; > 100 µM (inactive) in the experiment on M14; > 100 µM (inactive) in the experiment with SK-MEL-2; 22 µM (inactive) in the experiment with PC-3; 16.7 µM (inactive) in the experiment with U-251; > 100 µM (inactive) in the experiment on CCRF-CEM. The GI50 with MDA-MB-231 was > 10 µM (inactive); with OVCAR-5, 64.9 µM (inactive); with HL-60, 18.7 µM (inactive); in the experiment on NCI-H460 it was 7.5 µM (inactive); with HCT-116, 12.9 µM (inactive).

As to `Cc1cn(C2CC(Br)C(COC(c3ccccc3)(c3ccccc3)c3ccccc3)O2)c(=O)[nH]c1=O` (configuration not stated), the GI50 with NCI-H23 is 7.4 µM (inactive); in the experiment on HOP-62 it was 16.9 µM (inactive); with SN12C, 14.7 µM (inactive); with T47D it was 12.3 µM (inactive); with RPMI-8226 it was 4.7 µM (inactive); in the experiment with UO-31 it was 6.71 µM (inactive). Besides, the GI50 in the experiment on BT-549 is 12 µM (inactive); in the experiment on M14, 13.2 µM (inactive); in the experiment on SK-MEL-2 it was 14.6 µM (inactive); in the experiment on PC-3 it was 5.73 µM (inactive); in the experiment with U-251 it was 12.3 µM (inactive); in the experiment on CCRF-CEM, 4.88 µM (inactive). Also, the GI50 in the experiment with MDA-MB-231 is 17.7 µM (inactive); with OVCAR-5 it was 16.6 µM (inactive); in the experiment with HL-60, 4.76 µM (inactive); with HCT-116, 8.2 µM (inactive); in the experiment with SK-MEL-28 it was 16.7 µM (inactive).

For the compound `O=c1c(Cc2ccccc2)c(-c2ccccc2)[nH]n1C1=NCCN1`, the GI50 with NCI-H23 was 62.5 µM (inactive); in the experiment with HOP-62 it was 56 µM (inactive); in the experiment on T47D it was 45.3 µM (inactive); in the experiment on RPMI-8226, 47 µM (inactive); with HCT-15, 7.74 µM; in the experiment with UO-31 it was 42.6 µM (inactive). In addition, the GI50 was > 100 µM (inactive) in the experiment on BT-549; 25.3 µM (inactive) in the experiment on M14; 28.4 µM (inactive) in the experiment with SK-MEL-2; 36.8 µM (inactive) in the experiment with PC-3; 33.6 µM (inactive) with U-251; 16.7 µM (inactive) in the experiment with CCRF-CEM. The GI50 with MDA-MB-231 was > 100 µM (inactive); with OVCAR-5, 72.6 µM (inactive); in the experiment on HL-60, 15.1 µM (inactive); with NCI-H460, 16.9 µM (inactive); in the experiment on HCT-116, 24.6 µM (inactive).

With `Oc1ccc(CNCc2ccccc2)c2cccnc12`, the GI50 was 0.156 µM (active) in the experiment on NCI-H23; 0.0853 µM (active) in the experiment with HOP-62; 0.0601 µM (active) in the experiment on SN12C; 0.0783 µM (active) in the experiment on T47D; 0.156 µM (active) in the experiment on RPMI-8226; 0.0628 µM in the experiment with HCT-15. Besides, the GI50 in the experiment on UO-31 was 0.316 µM (active); in the experiment with BT-549, 0.0703 µM (active); in the experiment with M14, 0.27 µM (active); with SK-MEL-2, 0.264 µM (active); with PC-3, 0.336 µM (active); in the experiment with U-251 it was 0.0384 µM (active). In addition, the GI50 with CCRF-CEM is 0.0436 µM (active); with MDA-MB-231 it was 0.36 µM (active); in the experiment with OVCAR-5 it was 1.22 µM (inactive); in the experiment on HL-60 it was 0.294 µM (active); with NCI-H460 it was 0.034 µM (active); in the experiment with HCT-116, 0.0594 µM (active). The 50% growth inhibitory concentration (GI50) in the experiment with SK-MEL-28 is 0.424 µM (active).

Take `CN(C(=O)c1cccs1)C(=S)N1CCN(c2ccccc2)CC1`: the GI50 with NCI-H23 was > 100 µM (inactive); in the experiment on SN12C, > 100 µM (inactive); in the experiment with T47D it was > 100 µM (inactive); in the experiment with RPMI-8226, 52.2 µM (inactive); in the experiment on HCT-15, greater than 100 µM; in the experiment on UO-31, > 100 µM (inactive). Besides, the GI50 in the experiment on BT-549, in the experiment on M14, in the experiment with SK-MEL-2, in the experiment on U-251, in the experiment on CCRF-CEM and with MDA-MB-231 was > 100 µM (inactive) throughout. The GI50 in the experiment with OVCAR-5 was > 100 µM (inactive); in the experiment on HL-60 it was 68.5 µM (inactive); in the experiment with NCI-H460, > 100 µM (inactive); with SK-MEL-28 it was > 100 µM (inactive); with HCC 2998, > 100 µM (inactive).

Turning to `c1ccc(-c2cnc3nc4ccccc4nc3n2)cc1`, the GI50 in the experiment on NCI-H23 is 3.82 µM (inactive); with HOP-62, 13.9 µM (inactive); in the experiment with SN12C it was 9.08 µM (inactive); in the experiment on T47D, 3.85 µM (inactive); with RPMI-8226 it was 1.32 µM (inactive); in the experiment with HCT-15, 2.5 µM. For the same compound, the GI50 is 4.58 µM (inactive) in the experiment on UO-31; 3.43 µM (inactive) in the experiment on BT-549; 6.11 µM (inactive) with M14; 2.88 µM (inactive) in the experiment with SK-MEL-2; 4.94 µM (inactive) in the experiment on U-251; 0.301 µM (active) in the experiment on CCRF-CEM. Also, the GI50 in the experiment with MDA-MB-231 is 2.69 µM (inactive); in the experiment on OVCAR-5, 13.6 µM (inactive); in the experiment with HL-60, 1.82 µM (inactive); in the experiment with NCI-H460, 2.96 µM (inactive); in the experiment with HCT-116, 2.86 µM (inactive); with SK-MEL-28, 14.7 µM (inactive). Also, the GI50 with HCC 2998 is 11.7 µM (inactive).
